Reference: BigSolDB 2.1

COC(=O)CC[C@H](N)C(=O)O
solubility (mole fraction)
Conditions	283.15 K	288.15 K	293.15 K	298.15 K	303.15 K	308.15 K	313.15 K	318.15 K	323.15 K
in acetone	5.18e-05	9.7e-05	0.000148	0.000221	0.000292	0.000377	0.000438	0.000516	0.000572
in ethanol	0.000116	0.000147	0.000177	0.000212	0.000245	0.000272	0.000307	0.000348	0.000383
in isopropanol	8.34e-05	0.000104	0.000124	0.000144	0.000166	0.000196	0.000217	0.000245	0.000272
in methanol	0.00115	0.00122	0.0013	0.00138	0.00145	0.00152	0.00161	0.0017	0.00179
in n-propanol	1.38e-05	4.22e-05	7.7e-05	0.000116	0.000154	0.000208	0.000246	0.000289	0.000336
in water	0.0337	0.036	0.0394	0.0426	0.0457	0.0489	0.0523	0.0565	0.0608
